US12378234B2, “Crystalline polymorphs of a 1-thiazol-2-yl-pyrazole-5-carboxylic acid derivative” (Bantam Pharmaceutical, LLC, priority 2019, dated 2025)

Legend:
Format in all cases: physicochemical
[1] = Form stability on drying, checked by XRPD; conditions: for change to the polymorph during drying (XRPD): wet solids vacuum-dried at 50° C. for 2 hours; for form stability upon drying under ambient condition (XRPD): solids isolated from slurry
Description: Crystalline polymorph Form 1 (20 mg) was suspended in 0.2-0.9 mL of methyl tert-butyl ether (MTBE). The resulting slurry was stirred at room temperature for 4 days, after which the remaining solids were isolated and subjected to XRPD.
Crystalline polymorph Form 1 (20 mg) was suspended in 0.2-0.9 mL of tetrahydrofurane:H2O (1:9 v:v). The resulting slurry was stirred at room temperature for 4 days, after which the remaining solids were isolated and subjected to XRPD.
A solution of crystalline polymorph Form 1 (20 mg in 0.3 mL) was mixed with 0.3 mL a solution of KOH in ethyl acetate (1:1 molar ratio of KOH:Form 1), and then stirred for 2 to 5 days at room temperature. The solids were isolated and subjected to XRPD. The wet solids were also vacuum-dried at 50° C. for 2 hours, and then subjected to XRPD. […] This crystalline polymorph was also characterized by TGA, DSC, and PLM. […] Based on the results, Form 9 was considered to be a hydrate or a solvate.
X-Ray Powder Diffraction was obtained by standard techniques using Panalytical X'Pert3 Powder XRPD on a Si zero-background holder operating with a Cu Kα radiation source at 45 kV, 40 mA (Kα1 (Å): 1.540598, Kα2 (Å): 1.544426, Kα2/Kα1 intensity ratio: 0.50). The 2θ position was calibrated against Panalytical Si reference standard disc. The scanning parameters ranged from 3 to 40° 2θ (±0.0131°) and a continuous scan at a rate of about 0.04° 2θ/minute.

[2] = Slurry conversion (competitive) experiments for thermodynamic stability relationship; conditions: for pH of solution: 2.5 mg in 1 mL of 4% dichloromethane
Description: To determine the thermodynamic stability relationship between Form 1 and Form 5, slurry conversion experiments were conducted. Specifically, Form 1 sample was added to 1.0 mL H2O:acetone (9:1 v:v) or 0.8 mL of H2O:ethanol (3:1 v:v) at room temperature. After equilibrium for 1 hr, the suspensions were filtered to obtain a saturated solution Form 1. To each saturated solution of Form 1:Form 5 (1:1) was added. After stirring at room temperature for 2 or 3 days, the solids were isolated for XRPD analysis.
To determine the thermodynamic stability relationship between Form 11 and Form 12, slurry conversion experiments were conducted. Specifically, Form 12 (2.5 mg) was added to 1.0 mL of 4% dichloromethane at room temperature. After equilibrium for 1 hour, the suspensions were filtered to obtain a saturated solution Form 12. To the saturated solution of Form 11:Form 12 (1:1) was added. After stirring at room temperature for 30 minutes, the solids were isolated for XRPD analysis. […] The pH of Form 11 solution (2.5 mg in 1 mL of 4% dichloromethane) and Form 12 solution (2.5 mg in 1 mL of 4% dichloromethane) was measured to be 8.25 and 7.98, respectively.

[3] = Solubility of crystalline polymorph in biologically relevant media (water, SGF, FaSSIF, FeSSIF), HPLC of supernatant, pH, XRPD of remaining solids; conditions: for solubility at 1 h / solubility at 4 h / solubility at 24 h: thermodynamic from solid, 37° C.; for pH: solubility test
Description: The solubility of crystalline polymorph Form 1 was tested in biologically relevant media: water, simulated gastric fluid (SGF), fasted state simulated intestinal fluid (FaSSIF) and fed state simulated intestinal fluid (FeSSIF). For example, the crystalline polymorph was suspended in the solvent with stirring at 400 rpm at 37° C. for 1 h, 4 h and 24 h followed by filtration. The supernatant concentration was measured by HPLC (Mobile phase A: 0.1% NH3 in H2O, Mobile phase B: acetonitrile; flow rate: 0.8 mL/min; injection volume: 5 μL). The remaining solids were tested by XRPD.
The solubility of crystalline polymorph Form 11 was tested in biologically relevant media: water, SGF, FaSSIF, and FeSSIF. For example, the crystalline polymorph was suspended in the solvent with stirring at 400 rpm at 37° C. for 1 h, 4 h and 24 h followed by filtration. The supernatant was measured by HPLC for concentration and the remaining solids were tested by XRPD.

With “magnesium 4-(3-fluorophenyl)-1-(5-(isopropylthio)-4-(4-(trifluoromethyl)cyclohex-1-en-1-yl)thiazol-2-yl)-3-methyl-1H-pyrazole-5-carboxylate [Form 14]” the “change to the polymorph during drying (XRPD)” value (“change … (XRPD)” below) [1] was “no change to the polymorph was observed”.

In the case of `Cc1nn(-c2nc(C3=CCC(C(F)(F)F)CC3)c(SC(C)C)s2)c(C(=O)O)c1-c1cccc(F)c1.NC(N)=O` (centres unmarked) [Form 15, urea 4-(3-fluorophenyl)-1-(5-(isopropylthio)-4-(4-(trifluoromethyl)cyclohex-1-en-1-yl)thiazol-2-yl)-3-methyl-1H-pyrazole-5-carboxylate], the “change … (XRPD)” value [1] is reported as “no change to the polymorph was observed”.

For `Cc1nn(-c2nc(C3=CCC(C(F)(F)F)CC3)c(SC(C)C)s2)c(C(=O)O)c1-c1cccc(F)c1` (centres unmarked) [Form 2, 4-(3-fluorophenyl)-1-(5-(isopropylthio)-4-(4-(trifluoromethyl)cyclohex-1-en-1-yl)thiazol-2-yl)-3-methyl-1H-pyrazole-5-carboxylic acid], the “form stability upon drying under ambient condition (XRPD)” value [1] was “metastable and partially converted to Form 1”.

For `Cc1nn(-c2nc(C3=CCC(C(F)(F)F)CC3)c(SC(C)C)s2)c(C(=O)O)c1-c1cccc(F)c1.O=C(O)C1CCCN1` [Form 16, L-proline 4-(3-fluorophenyl)-1-(5-(isopropylthio)-4-(4-(trifluoromethyl)cyclohex-1-en-1-yl)thiazol-2-yl)-3-methyl-1H-pyrazole-5-carboxylate], the “change … (XRPD)” value [1] was “no change to the polymorph was observed”.

With `Cc1nn(-c2nc(C3=CCC(C(F)(F)F)CC3)c(SC(C)C)s2)c(C(=O)[O-])c1-c1cccc(F)c1.[K+]` (centres unmarked) [Form 10, potassium 4-(3-fluorophenyl)-1-(5-(isopropylthio)-4-(4-(trifluoromethyl)cyclohex-1-en-1-yl)thiazol-2-yl)-3-methyl-1H-pyrazole-5-carboxylate] the “change … (XRPD)” value [1] was “no change to the polymorph was observed”.

For `Cc1nn(-c2nc(C3=CCC(C(F)(F)F)CC3)c(SC(C)C)s2)c(C(=O)[O-])c1-c1cccc(F)c1.[Na+]` (centres unmarked) [Form 12, sodium 4-(3-fluorophenyl)-1-(5-(isopropylthio)-4-(4-(trifluoromethyl)cyclohex-1-en-1-yl)thiazol-2-yl)-3-methyl-1H-pyrazole-5-carboxylate], the “change … (XRPD)” value [1] was “no change to the polymorph was observed” and the pH of solution [2] was 7.98.

With `Cc1nn(-c2nc(C3=CCC(C(F)(F)F)CC3)c(SC(C)C)s2)c(C(=O)O)c1-c1cccc(F)c1.N=C(N)NCCCC(N)C(=O)O` [Form 13, L-arginine 4-(3-fluorophenyl)-1-(5-(isopropylthio)-4-(4-(trifluoromethyl)cyclohex-1-en-1-yl)thiazol-2-yl)-3-methyl-1H-pyrazole-5-carboxylate] the “change … (XRPD)” value [1] was “no change to the polymorph was observed”.

With `Cc1nn(-c2nc(C3=CCC(C(F)(F)F)CC3)c(SC(C)C)s2)c(C(=O)O)c1-c1cccc(F)c1` (centres unmarked) [Form 8, 4-(3-fluorophenyl)-1-(5-(isopropylthio)-4-(4-(trifluoromethyl)cyclohex-1-en-1-yl)thiazol-2-yl)-3-methyl-1H-pyrazole-5-carboxylic acid] the “form stability upon drying under ambient condition (XRPD)” value [1] was “metastable and partially converted to Form 1”.

With `Cc1nn(-c2nc(C3=CCC(C(F)(F)F)CC3)c(SC(C)C)s2)c(C(=O)[O-])c1-c1cccc(F)c1.[Na+]` (centres unmarked) [Form 11, sodium 4-(3-fluorophenyl)-1-(5-(isopropylthio)-4-(4-(trifluoromethyl)cyclohex-1-en-1-yl)thiazol-2-yl)-3-methyl-1H-pyrazole-5-carboxylate] the “Form change by XRPD of remaining solids” value ([3]; after solubility test in FaSSIF) was “no form change was observed”, the “Form change by XRPD of remaining solids” value ([3]; after solubility test in FeSSIF) was “converted to Form 1” and the “Form change by XRPD of remaining solids” value ([3]; after solubility test in SGF) was “converted to Form 1”. For the same compound, the “Form change by XRPD of remaining solids” value ([3]; after solubility test in water) was “no form change was observed”, the solubility at 1 h ([3]; fasted state simulated intestinal fluid (FaSSIF), FaSSIF, 1 hr) was 100 µg/mL and the solubility at 4 h ([3]; fasted state simulated intestinal fluid (FaSSIF), FaSSIF, 4 hr) was 100 µg/mL. It also gave a solubility at 24 h ([3]; fasted state simulated intestinal fluid (FaSSIF), FaSSIF, 24 hr) of 200 µg/mL, a solubility at 1 h ([3]; fed state simulated intestinal fluid (FeSSIF), FeSSIF, 1 hr) of 200 µg/mL and a solubility at 4 h ([3]; fed state simulated intestinal fluid (FeSSIF), FeSSIF, 4 hr) of 300 µg/mL. For the same compound, the solubility at 24 h ([3]; fed state simulated intestinal fluid (FeSSIF), FeSSIF, 24 hr) was 400 µg/mL, the solubility at 1 h ([3]; simulated gastric fluid (SGF), simulated gastric fluid, SGF, 1 hr) was 40 µg/mL and the solubility at 4 h ([3]; simulated gastric fluid (SGF), simulated gastric fluid, SGF, 4 hr) was 100 µg/mL. The solubility at 24 h ([3]; simulated gastric fluid (SGF), simulated gastric fluid, SGF, 24 hr) was 300 µg/mL, the pH ([3]; FaSSIF, 1 hr) was 6.48 and the pH ([3]; FaSSIF, 4 hr) was 6.45. The pH ([3]; FaSSIF, 24 hr) was 6.56, the pH ([3]; FeSSIF, 1 hr) was 5.19 and the pH ([3]; FeSSIF, 4 hr) was 5.28. It also gave a pH ([3]; FeSSIF, 24 hr) of 5.32, a pH ([3]; H2O, 1 hr) of 9.67 and a pH ([3]; H2O, 4 hr) of 9.31. For the same compound, the pH ([3]; H2O, 24 hr) was 9.17, the pH ([3]; SGF, 1 hr) was 2.12 and the pH ([3]; SGF, 4 hr) was 2.55. The pH ([3]; SGF, 24 hr) was 6.81, the solubility at 1 h ([3]; water, H2O, 1 hr) was 1400 µg/mL and the solubility at 4 h ([3]; water, H2O, 4 hr) was 1300 µg/mL. The solubility at 24 h ([3]; water, H2O, 24 hr) was 1200 µg/mL, the “change … (XRPD)” value [1] was “no change to the polymorph was observed” and the pH of solution [2] was 8.25. The “thermodynamic stability relationship between Form 11 and Form 12” value ([2]; slurry of Form 11:Form 12 (1:1) in 4% dichloromethane, room temperature, 30 minutes) was “more thermodynamically stable than Form 12”.

In the case of `Cc1nn(-c2nc(C3=CCC(C(F)(F)F)CC3)c(SC(C)C)s2)c(C(=O)[O-])c1-c1cccc(F)c1.[K+]` (centres unmarked) [Form 9, potassium 4-(3-fluorophenyl)-1-(5-(isopropylthio)-4-(4-(trifluoromethyl)cyclohex-1-en-1-yl)thiazol-2-yl)-3-methyl-1H-pyrazole-5-carboxylate], the “change … (XRPD)” value [1] is reported as “no change to the polymorph was observed”.
